# Tests used:
# [1] = tested on: peptide-specific T cells in PBMC; experiment: 10-day interferon-gamma ELIspot with PBMC of breast or ovarian cancer patients and healthy controls; type: cell-based, human; settings: for Percent of patients with responses: fraction of breast or ovarian cancer patients with mean T cell values above cutoff (mean + 2 SD of healthy donors)
# Description: Each panel represents a unique peptide and each data point is derived from one individual. The grey box (i.e. cutoff) delineates the region that constitutes the mean and two standard deviations calculated from the normal healthy individuals. The percentages represent the fraction of patients that had mean T cell values above the cutoff. The peptides that are circled are those in which a higher fraction of the patients responded compared to the normal healthy controls. These peptides are considered to be the best vaccine candidates. However, it is clear that the rigidness of this approach could potentially result in many false negatives. […] Despite this, we identified 5 candidates to move forward. The fidelity of this approach is evident from a prior study which has already shown that a HER-2/neu peptide, p884-899, which encompasses the binding motif of p885, is an HLA-DR4 epitope.
# Enzyme-linked immunosorbent spot assay. A 10-day ELlspot for detecting low-frequency T cells was used to determine reactivity to the tumor antigen peptides (Table 1) as described (Knutson K L et al. J Clin Onc 2006;24: 4254-61). […] PMA/Ionomycin and the CEF pool were used as positive non-tumor related controls as previously described (Knutson, 2006).
# Using predictive algorithms discussed above, candidate HLA-DR1-binding epitopes were identified. […] An interferon-gamma ELIspot assay was used to assess immunity to the indiscriminate binding peptides in 48 patients with either breast or ovarian cancer and 18 healthy controls.
# Using an ELlspot assay with a limit of detection of approximately […], patient-derived PBMC were screened for reactivity against all of the HLA-DR binding peptides.
# [2] = tested on: 15 different HLA-DR molecules; experiment: HLA-DR binding assays, panel of 15 different HLA-DR molecules (breadth of binding); settings: number of the 15 HLA-DR molecules bound (binders: 1000 nM or better)
# [3] = molecular target: T1, purified HLA DRB1*0101 (Homo sapiens, UniProt P01903+P01911, A100R/D57E/F55L/F60I/F76Y/I96L/L162R/M171V/P40L/Q125E/R42F/V115G/Y59C); experiment: HLA-DR radioligand binding inhibition assay, DRB1*0101; settings: IC50 nM purified HLA DRB1 *0101, purified HLA DRB1*0101
# T1 construct: purified from EBV transformed homozygous cell lines or single MHC allele transfected 721.221, C1R, or fibroblast lines; made in house
# In short: (§1)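 First, HLA-DR was purified from lysates on LB3.1 columns. Then 1 μM to 1 nM protein was incubated 2 days with 1-10 nM radiolabeled peptide at pH 4 to 7. Finally, complexes were captured for 3 hours and bound cpm determined.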
# [4] = molecular target: T2, purified HLA DRB1*0301 (Homo sapiens, UniProt P01903+P01911, A100K/A102G/A103R/A169T/F55Y/I96L/K41T/L162R/M171V/P40S/Q125H/Q178H/Q39Y/R42S/S66N/T106N/T262R/W38E/Y61H); experiment: HLA-DR radioligand binding inhibition assay, DRB1*0301; settings: IC50 nM purified HLA DRB1 *0301, purified HLA DRB1*0301
# T2 construct: purified from EBV transformed homozygous cell lines or single MHC allele transfected 721.221, C1R, or fibroblast lines; made in house
# Procedure: (§2) Instead, wells of an opaque white 96-well Optiplate (Packard) are coated with 3 μg (100 μl@ 30 μg/ml) of HLA-specific antibody (Ab) that “capture” complexes of radiolabeled MHC and unlabeled peptide transferred from the molecular binding assay plate in 100 μl of 0.05% NP40/PBS. After a 3-hour incubation period, the supernatant is decanted and scintillation fluid (Microscint 20) added. Captured complexes are then measured on a microplate scintillation and luminescence counter (TopCount NXTTM; Packard).
# (§3) HLA-DR purification. Fifteen distinct HLA-DR molecules were used in quantitative assays to measure the binding of peptides to solubilized HLA-DR molecules. […] Briefly, columns of inactivated Sepharose CL4B and Protein A Sepharose were used as pre-columns. HLA-DR molecules were captured by passage of lysates over LB3.1 monoclonal antibody (anti-HLA-DRA) columns. Antibody columns were washed with 10 mM Tris-HCL, pH8.0 with 1% (v/v) NP-40, followed by PBS containing 0.4% (w/v) n-octylglucoside.
# (§4) Briefly, 1-10 nM of radiolabeled peptide was co-incubated for 2 days at either room temperature or 37° C. with 1 μM to 1 nM purified HLA-DR molecules in the presence of a cocktail of protease inhibitors. Assays were performed at various pH conditions, ranging from pH 4 to pH 7. […] After incubation, the percentage of HLA-DR-bound radioactivity is determined by capturing HLA-DR/peptide complexes on Optiplates (Packard Instruments, Meriden, Conn.) coated with the LB3.1 antibody and determining bound counts per minute using the TopCount microscintillation counter (Packard Instruments).
# [5] = molecular target: T3, purified HLA DRB1*0401 (Homo sapiens, UniProt P01903+P01911, A100K/A169T/F76Y/I96L/K127E/L162R/M171V/N62H/P40V/Q125Y/R42H/S133A/S149N/S66Y/V115G/V209L/W38E); experiment: HLA-DR radioligand binding inhibition assay, DRB1*0401; settings: IC50 nM purified HLA DRB1 *0401, purified HLA DRB1*0401
# T3 construct: purified from EBV transformed homozygous cell lines or single MHC allele transfected 721.221, C1R, or fibroblast lines; made in house
# In short: as §1
# [6] = molecular target: T4, purified HLA DRB1*0802 (Homo sapiens, UniProt P01903+P01911, A100R/A103L/A169T/F76Y/H45Y/I96F/K41T/L162R/M171V/P40S/Q125H/Q178H/Q39Y/Q99D/R218S/R42G/S66Y/V115G/W38E); experiment: HLA-DR radioligand binding inhibition assay, DRB1*0802; settings: IC50 nM purified HLA DRB1 *0802, purified HLA DRB1*0802
# T4 construct: purified from EBV transformed homozygous cell lines or single MHC allele transfected 721.221, C1R, or fibroblast lines; made in house
# Procedure: as §2
# as §3, with “n-octylglucoside. […] The pH was reduced to 8.0 and the eluates were concentrated by centrifugation in Centriprep 30 concentrators at 2000 rpm (Amicon, Beverly, Mass.).” for “n-octylglucoside.”
# as §4, with “Instruments). […] Competitor peptides are tested in 2-4 complete, independent experiments, at concentrations ranging from […].” for “Instruments).”
# [7] = molecular target: T5, purified HLA DRB1*1201 (Homo sapiens, UniProt P01903+P01911, A100R/A169T/D57E/D86V/F55L/H45Y/K41T/L162R/M171V/P40S/Q125H/Q178H/Q39Y/Q99D/R42G/S66L/T262R/V114A/V67L/W38E/Y59H/Y61H/Y89S); experiment: HLA-DR radioligand binding inhibition assay, DRB1*1201
# T5 construct: purified from EBV transformed homozygous cell lines or single MHC allele transfected 721.221, C1R, or fibroblast lines; made in house
# Procedure: as §2
# as §3, with “n-octylglucoside. […] The pH was reduced to 8.0 and the eluates were concentrated by centrifugation in Centriprep 30 concentrators at 2000 rpm (Amicon, Beverly, Mass.).” for “n-octylglucoside.”
# as §4, with “Instruments). […] Competitor peptides are tested in 2-4 complete, independent experiments, at concentrations ranging from […].” for “Instruments).”
# [8] = molecular target: T6, purified HLA DRB1*1501 (Homo sapiens, UniProt P01903+P01911); experiment: HLA-DR radioligand binding inhibition assay, DRB1*1501
# T6 construct: purified from EBV transformed homozygous cell lines or single MHC allele transfected 721.221, C1R, or fibroblast lines; made in house
# In short: as §1
# [9] = molecular target: T7, purified HLA DRB3*0101 (Homo sapiens, UniProt P01903+P79483); experiment: HLA-DR radioligand binding inhibition assay, DRB3*0101; settings: IC50 nM purified HLA DRB3 *0101, purified HLA DRB3*0101
# T7 construct: purified from EBV transformed homozygous cell lines or single MHC allele transfected 721.221, C1R, or fibroblast lines; made in house
# Procedure: as §2
# as §3, with “n-octylglucoside. […] The pH was reduced to 8.0 and the eluates were concentrated by centrifugation in Centriprep 30 concentrators at 2000 rpm (Amicon, Beverly, Mass.).” for “n-octylglucoside.”
# as §4, with “Instruments). […] Competitor peptides are tested in 2-4 complete, independent experiments, at concentrations ranging from […].” for “Instruments).”
# [10] = molecular target: T8, purified HLA DRB5*0101 (Homo sapiens, UniProt P01903+Q30154); experiment: HLA-DR radioligand binding inhibition assay, DRB5*0101; settings: IC50 nM purified HLA DRB5 *0101, purified HLA DRB5*0101
# T8 construct: purified from EBV transformed homozygous cell lines or single MHC allele transfected 721.221, C1R, or fibroblast lines; made in house
# In short: as §1
Total XRN [2],IC50 [3] [nM],IC50 [4] [nM],IC50 [5] [nM],IC50 [6] [nM],IC50 [7] [nM],IC50 [8] [nM],IC50 [9] [nM],IC50 [10] [nM],Compound,Percent of patients with responses [1] [%],"patient response rate on exclusion of one healthy individual with a robust response ([1]; recalculated cutoff, FIG. 1) [%]"
10,–,–,–,–,–,–,–,–,CC[C@H](C)[C@H](N)C(=O)N[C@@H](CCCCN)C(=O)N[C@@H](Cc1c[nH]c2ccccc12)C(=O)N[C@@H](CCSC)C(=O)N[C@@H](C)C(=O)N[C@@H](CC(C)C)C(=O)N[C@@H](CCC(=O)O)C(=O)N[C@@H](CO)C(=O)N[C@H](C(=O)N[C@@H](CC(C)C)C(=O)N[C@@H](CCCNC(=N)N)C(=O)N[C@@H](CCCNC(=N)N)C(=O)N[C@@H](CCCNC(=N)N)C(=O)N[C@@H](Cc1ccccc1)C(=O)N[C@H](C(=O)O)[C@@H](C)O)[C@@H](C)CC [Peptide 9019.0003],4,15
–,1470,7860,426,263,1560,61,> 20000,4010,CC[C@H](C)[C@H](NC(=O)[C@H](CS)NC(=O)[C@H](Cc1c[nH]c2ccccc12)NC(=O)[C@@H](N)CCCNC(=N)N)C(=O)N1CCC[C@H]1C(=O)N[C@@H](Cc1c[nH]c2ccccc12)C(=O)N[C@@H](CCC(N)=O)C(=O)N[C@@H](CCCNC(=N)N)C(=O)N[C@@H](CC(C)C)C(=O)N[C@@H](CC(C)C)C(=O)N[C@@H](CC(C)C)C(=O)N[C@H](C(=O)N[C@@H](C)C(=O)N[C@@H](CO)C(=O)N[C@@H](CC(C)C)C(=O)O)[C@@H](C)O [Peptide 9019.0104],–,–
10,–,–,–,–,–,–,–,–,CC[C@H](C)[C@H](NC(=O)[C@@H](NC(=O)[C@H](CC(C)C)NC(=O)[C@H](CCCCN)NC(=O)[C@H](C)NC(=O)[C@@H](NC(=O)[C@@H](NC(=O)[C@@H]1CCCN1C(=O)[C@@H]1CCCN1C(=O)[C@H](CC(N)=O)NC(=O)[C@H](Cc1c[nH]c2ccccc12)NC(=O)[C@H](Cc1ccccc1)NC(=O)[C@@H](NC(=O)[C@H](CC(C)C)NC(=O)[C@@H](N)CC(C)C)[C@@H](C)O)[C@@H](C)O)[C@@H](C)O)[C@@H](C)O)C(=O)O [Peptide 9019.0105],17,–
